Source: US20240122834A1, “MEDICAMENT FOR PREVENTION AND TREATMENT OF HYPERPIGMENTATION” (SYMRISE AG, priority 2021, published 2024)

Tested on: tyrosinase activity in B16 melanoma cells
Test: Tyrosinase activity in B16 melanoma cells (lysate, L-dopa to dopachrome, absorbance 475 nm)
Assay type: cell-based
Conditions: B16 cells treated for 3 days, untreated control = 100
From the text: Tyrosinase is an oxidase that is the rate-limiting enzyme for controlling the production of melanin. The enzyme is mainly involved in two distinct reactions of melanin synthesis; firstly, the hydroxylation of a monophenol and secondly, the conversion of an o-diphenol to the corresponding o-quinone. o-quinone undergoes several reactions to eventually form melanin Tyrosinase is a copper-containing enzyme present in plant and animal tissues that catalyzes the production of melanin and other pigments from tyrosine by oxidation. It is found inside melanosomes which are synthesized in the skin melanocytes. In humans, the tyrosinase enzyme is encoded by the TYR gene.
To measure the tyrosinase activity of the cells, the B16 cells treated for 3 days with several doses of compounds were lysed by incubation at 4° C. for 30 min in lysis buffer (20 mM sodium phosphate, pH 6.8, 1% Triton X-100, 1 mM PMSF, 1 mM EDTA) containing protease inhibitors cocktail. The lysates were centrifuged at 15,000×g for 10 min to obtain the supernatant as the source of tyrosinase. The reaction mixture contained 20 mM phosphate buffer, pH 6.8, 1.25 mM L-dopa (Sigma-Aldrich). After incubation at 37° C. for 2 h, dopachrome formation was monitored by measuring absorbance at a wavelength of 475 nm in a microplate reader (TECAN).

Compound	Tyrosinase Activation (sample conc. 1 μg/ml)	Tyrosinase Activation (sample conc. 10 μg/ml)	further results
CCCCCc1cc(O)c(C/C=C(\C)CCC=C(C)C)c(O)c1 [(−) CBG]	55%		Tyrosinase Activation (sample conc. 0.5 μg/ml): 62%
CCCCCCCCCCCC=O [Aldehyde C12]	82%		Tyrosinase Activation (sample conc. 0.1 μg/ml): 78%
C=CCOC(=O)COc1ccccc1 [Allyl phenoxyacetate]	62%	50%	Tyrosinase Activation (sample conc. 50 μg/ml): 48%
O=Cc1ccccc1 [Benzaldehyde]		75%	
CC(=O)CCc1ccccc1 [Benzyl acetone]			Tyrosinase Activation (sample conc. 5 μg/ml): 90%; Tyrosinase Activation (sample conc. 25 μg/ml): 80%; Tyrosinase Activation (sample conc. 100 μg/ml): 90%
CC(C)=CCC(C)(C)C(=O)C(C)C [Claritone]			Tyrosinase Activation (sample conc. 2.5 μg/ml): 70%
C=CCOC(=O)COC1CCCCC1 [Cyclogalbanate]		73%	
CC(=O)OC1CC(C)CC(C)(C)C1 (stereo not shown) [Mintonat, Homomenthyl acetate]	80%		
COC(Cc1ccccc1)OC [Phenyl acetaldehyde dimethyl acetal]		80%	Tyrosinase Activation (sample conc. 100 μg/ml): 78%
